# In PMC8072159, “5-Bis-(2,6-difluoro-benzylidene) Cyclopentanone Acts as a Selective 11β-Hydroxysteroid Dehydrogenase one Inhibitor to Treat Diet-Induced Nonalcoholic Fatty Liver Disease in Mice” (Frontiers in Pharmacology, 2021):
# Entries after “also recorded” stand apart in the source; their conditions may differ.
# Tested on: HFD-induced NAFLD mice
# Assay: HFD-induced NAFLD mouse model, WZS08 by gavage for 100 days
# Format: in vivo
# Settings: for Body weight / Dorsal adipose weight / Epididymal adipose weight / Mesenteric adipose weight / Thymic adipose weight / Total hepatic weight: mean ± SEM
# Description: The KM mice were randomly divided into six groups, including a regular chow (Group C), HFD (Group M) as a model control group, HFD supplemented with various doses of WZS08, 1 (Group M + W1), 2 (Group M + W2), and 4 (Group + W4) mg/kg, 20 mice per group. Mice were housed five animals per cage. Mice were maintained at a constant temperature (25 ± 3°C) for a 12-h light-dark cycle with free access to food and water. After a week of diet adaptation, the mice were fed with WZS08 dissolved in 1% sodium carboxymethyl cellulose (CMC-Na) or 1% CMC-Na for 100 days alone. Each mouse was gavaged daily with 0.5 ml vehicle (1% CMC-Na) or drug in 1%CMC-Na. By the end of the treatment, the mice were killed by CO2, and the weights of body, liver, epididymal fat, mesenteric fat, and dorsal fat were measured. […]
# Quantitative Real-Time Polymerase Chain Reaction
# Total RNA was isolated from mouse liver using Trizol kit according to the manufacturer’s instruction. To reduce genomic DNA contamination, total RNAs were treated with ribonuclease-free deoxyribonuclease I (Thermo Fisher Scientific, Waltham, MA, United States) for 1 h at 37°C. 1 μg RNA was used to synthesize the first strand cDNA by reverse transcription kit. qPCR was carried out using SYBR GREEN as an indicator using Bio-Rad real time PCR system. The standard curve method was adopted as previously described ([Lv et al., 2019]). The Ct values were recorded after a series of diluted standards of mouse liver cDNAs, and the linear equation of Ct values vs. logarithm [dilution of standards] was generated, and the concentration of the target mRNA was calculated according to their Ct value. The result was normalized to Gapdh (encoding GAPDH) and Rps16 as the internal controls. The mRNA levels of Acs2 (encoding acetyl-CoA synthetase2), Hsd11b1 (encoding 11β–HSD1), Ldlr (encoding LDLR), Plin2 (encoding PLIN2), and Plin3 (encoding PLIN3) were evaluated. There were no changes in Gapdh and Rps16 mRNA levels between groups and the test mRNA levels were adjusted to Gapdh. Primer information is listed in Supplementary Table S1.
# Measurement of Serum Insulin and Corticosterone Levels and Blood Lipid Levels
# On the last day of the experiment, the mice were fasted for 6 h (with free access to drinking water), and then blood and tissues were sampled. Blood samples were collected. The blood sample was centrifuged at 5000 rpm for 10 min to collect the serum, and the serum was frozen at -40°C until use. According to standard clinical protocols, the levels of serum glucose, low-density lipoprotein (LDL), high-density lipoprotein (HDL), total cholesterol, and triglyceride (TG) were measured using Hitachi 7600 biochemical analyzer (Hitachi, Japan). In addition, serum insulin and corticosterone levels were evaluated using the ultrasensitive mouse insulin ELISA kit (CrystalChem, IL, USA) and the commercially available corticosterone ELISA kit (Abnova, Taiwan, China) according to the manufacturers’ instructions.
# Protein Expression Analysis
# Total hepatic protein extract was obtained as previously described ([Lazaro et al., 2013]). The protein was separated by SDS–PAGE and transferred to a 0.2 μm PVDF membrane. The primary antibodies used were: 11β-HSD1 (rabbit polyclonal antibody, Abcam, catalog # ab39364; being blocked with 11β-HSD1 peptide, #ab101097, San Francisco, CA), ACS2 (Abcam, catalog # ab229958, San Francisco, CA, United States), and β-actin (ACTB, Cell signaling, Danvers, MA, United States). Goat anti-rabbit HRP was used as a secondary antibody. Finally, chemiluminescence emitted by the immunoreactive protein was detected by an ECL advance agent, and visualized with a MicroChemi Imaging system and qualified by a densitometry using AlphaEaseFC (ProteinSample, CA, United States). Relative protein levels were normalized by ACTB.
# Before hematoxylin and eosin (HE) staining, the livers of KM mice were fixed in 10% formalin, dehydrated, and embedded in paraffin, as previously described ([Andres-Manzano et al., 2015]). […]
# [1] = HFD mice, 4 mg/kg (M + W4), 100 days
# [2] = HFD mice, 1, 2, and 4 mg/kg, vs Group M, qPCR
# [3] = HFD plus 1 mg/kg WZS08 (M + W1), 100 days
# [4] = HFD plus 2 mg/kg WZS08 (M + W2), 100 days
# [5] = HFD plus 4 mg/kg WZS08 (M + W4), 100 days
smiles,measurement,setting,value
"O=C1/C(=C/c2c(F)cccc2F)CC/C1=C\c1c(F)cccc1F [WZS08, (2E,5E)-2,5-bis(2,6-difluorobenzylidene) Cyclopentanone]",Fabp4 expression,"HFD mice, 1 mg/kg, 100 days",up-regulated
same,hepatic fat ratio,"HFD mice, 1 mg/kg, 100 days",significantly reduced
same,serum cholesterol,"HFD mice, 1 mg/kg, 100 days",significantly reduced
same,serum low-density lipoprotein,"HFD mice, 1 mg/kg, 100 days",significantly reduced
same,serum triglycerides,"HFD mice, 1 mg/kg, 100 days",significantly reduced
same,serum HDL level,[1],greatly reduced
same,serum LDL level,[1],greatly reduced
same,serum cholesterol level,[1],greatly reduced
same,serum triglyceride level,[1],greatly reduced
same,insulin index,"HFD mice, 4 mg/kg, 100 days, vs HFD group",significantly lowered
same,serum insulin levels,"HFD mice, 4 mg/kg, 100 days, vs HFD group, 4 mg/kg",significantly lowered; also recorded: completely reduced it to control level
same,liver lipid content (HE staining),"HFD mice, 1, 2, 4 mg/kg",remarkably reduced
same,insulin resistance (HOMA-IR),"HFD mice, 1, 2, 4 mg/kg, 100 days",dose-dependently reduced
same,body weight changes,"HFD mice, 1, 2, 4 mg/kg, 100 days, vs HFD control",dose-dependently reduced
same,Acs2 expression in liver,[2],up-regulated
same,Plin2 expression in liver,[2],down-regulated
same,morphology of the non-alcoholic fatty liver,"HFD mice, 100 days",significantly improved
same,liver fat content,"HFD mice, doses of 2 and 4 mg/kg",significantly decreased
same,Plin2 expression,"HFD mice, liver, 1 mg/kg, 100 days",down-regulated
same,Body weight,[3],52.46 ± 1.28 g
same,Dorsal adipose weight,[3],0.68 ± 0.092 g
same,Epididymal adipose weight,[3],2.05 ± 0.230 g
same,Mesenteric adipose weight,[3],0.64 ± 0.074 g
same,Thymic adipose weight,[3],0.08 ± 0.01 g
same,Total hepatic weight,[3],2.79 ± 0.12 g
same,Body weight,[4],50.25 ± 1.01 g
same,Dorsal adipose weight,[4],0.54 ± 0.049 g
same,Epididymal adipose weight,[4],1.52 ± 0.138 g
same,Mesenteric adipose weight,[4],0.55 ± 0.043 g
same,Thymic adipose weight,[4],0.06 ± 0.00 g
same,Total hepatic weight,[4],2.48 ± 0.06 g
same,Body weight,[5],49.00 ± 1.22 g
same,Dorsal adipose weight,[5],0.55 ± 0.070 g
same,Epididymal adipose weight,[5],1.54 ± 0.20 g
same,Mesenteric adipose weight,[5],0.54 ± 0.048 g
same,Thymic adipose weight,[5],0.077 ± 0.00 g
same,Total hepatic weight,[5],2.29 ± 0.06 g
same,blood glucose,"HFD-treated mice, oral administration",did not show significant changes
